This is an account of results in patent publication US20140349989A1, “COMPOUNDS AND THERAPEUTIC USES THEREOF” (Alzheimer's Institute of America, priority 2011, published 2014).

Each structure is given as a SMILES string. Bounds are passed on as bounds.

One data set is described as follows: Cytotoxicity Assay (HCT116, CellTiter-Glo). It counts as cell-based. To be noted: human, HCT116 cell cytotoxicity IC50. As to the method: HCT116 cells were seeded in 96 well plates (Greiner Bio-One, Monroe, N.C.) and allowed to settle overnight. Test compound dissolved in dimethyl sulfoxide (DMSO) was added and drug incubation proceeded for 72 hours. When applicable, a 1000× solution of nicotinic acid (NA; Sigma-Aldrich, St. Louis, Mo.) dissolved in water was generated, and 1×NA (10 μM final concentration) was added at the same time as the test compound. After 72 hour, 50 μL of CellTiter-Glo Luminescent Cell Viability Assay reagent (Promega Corporation, Madison, Wis.) was added to cells in 200 μL of cellular media. After a proscribed incubation period, luminescence was measured using a TopCount NXT plate reader (PerkinElmer, Waltham, Mass.).
For `O=C(NCc1cccnc1)Nc1ccc(-c2cn(S(=O)(=O)c3cccnc3)c3ccccc23)cc1` [Compound 43, 1-(Pyridin-3-ylmethyl)-3-{4-[1-(pyridin-3-ylsulfonyl)-1H-indol-3-yl]phenyl} urea], the IC50 at 72 h is below 100 nM.
As for `O=C(NCc1cccnc1)Nc1ccc(-n2cc(C3CCN(CC(F)(F)F)CC3)c3ccccc32)cc1` [Compound 82, 1-(Pyridin-3-ylmethyl)-3-(4-{3-[1-(2,2,2-trifluoroethyl)piperidin-4-yl]-1H-indol-1-yl}phenyl)urea], the IC50 at 72 h was below 100 nM.
Same read-out and setting: the same measure for `O=C(/C=C/c1ccc(-n2nc(C(=O)N3CCC(N4CCCCC4)CC3)c3ccccc32)cc1)NCc1cccnc1` [Compound 177, (2E)-3-{4-[3-(1,4′-Bipiperidin-1′-ylcarbonyl)-1H-indazol-1-yl]phenyl}-N-(pyridin-3-ylmethyl)prop-2-enamide]: below 100 nM.
Compound `O=C(NCc1cccnc1)Nc1ccc(-n2cc(-c3nccn3CCCN3CCCC3)c3ccccc32)cc1` [Compound 120, 1-(Pyridin-3-ylmethyl)-3-[4-(3-{1-[3-(pyrrolidin-1-yl)propyl]-1H-imidazol-2-yl}-1H-indol-1-yl)phenyl] urea] showed an IC50 at 72 h of at least 100 nM.
`O=C(NCc1ccc(Cl)nc1)Nc1ccc(-n2nc(N3CCN(C4CCCC4)CC3)c3ccccc32)cc1` [Compound 55, 1-[(6-Chloro-pyridin-3-yl)methyl]-3-{4-[3-(4-cyclopentyl-piperazin-1-yl)-1H-indazol-1-yl]phenyl}urea] had an IC50 at 72 h of at least 100 nM.
Take `O=C(NCc1cccnc1)Nc1ccc(-n2nc(C#CCN3CCOCC3)c3ccccc32)cc1` [Compound 42, 1-(4-{3-[3-(Morpholin-4-yl)prop-1-yn-1-yl]-1H-indazol-1-yl}phenyl)-3-(pyridin-3-ylmethyl)urea]: the IC50 at 72 h was below 100 nM.

The data set is the same for the next values; noted with them: human, HCT116 cells, 72 hours drug incubation, CellTiter-Glo luminescence; read-out: HCT116 cell cytotoxicity IC50.
As for `Cc1c(Cc2ccccc2)c(C(=O)N2CCC(N3CCCCC3)CC2)nn1-c1ccc(NC(=O)NCc2cccnc2)cc1` [Compound 46, 1-{4-[4-Benzyl-3-(1,4′-bipiperidin-1′-ylcarbonyl)-5-methyl-1H-pyrazol-1-yl]phenyl}-3-(pyridin-3-ylmethyl)urea], the IC50 at 72 h was below 100 nM.
On the same count and under the same terms, the same measure for `O=C(NCc1cccnc1)Nc1ccc(-n2cc(C(=O)N3CCC(N4CCC(F)(F)CC4)CC3)c3ccccc32)c(Cl)c1` [Compound 107, 1-(3-Chloro-4-{3-[(4,4-difluoro-1,4′-bipiperidin-1′-yl)carbonyl]-1H-indol-1-yl}phenyl)-3-(pyridin-3-ylmethyl)urea]: below 100 nM; for `CC(C)N(CCc1cn(-c2ccc(/C=C/C(=O)NCc3cccnc3)cc2)c2ccccc12)C(C)C` [Compound 163]: below 100 nM.
On to `O=C(NCCCCC(=O)c1cn(C2CCNCC2)c2ccccc12)NCc1cccnc1` [Compound 90, 1-{5-Oxo-5-[1-(piperidin-4-yl)-1H-indol-3-yl]pentyl}-3-(pyridin-3-ylmethyl)urea], for which the IC50 at 72 h is below 100 nM.
`CCOC(=O)c1cn(CCCCNC(=O)NCc2cccnc2)c2ccccc12` [Compound 45, Ethyl 1-(4-{[(pyridin-3-ylmethyl)carbamoyl]amino}butyl)-1H-indole-3-carboxylate]: the IC50 at 72 h was below 100 nM.
Take `Cc1c(C(=O)N2CCC(O)CC2)c2ccccc2n1-c1ccc(NC(=O)NCc2cccnc2)cc1` [Compound 108, 1-(4-{3-[(4-Hydroxypiperidin-1-yl)carbonyl]-2-methyl-1H-indol-1-yl}phenyl)-3-(pyridin-3-yl-methyl)urea]: the half-maximal inhibitory concentration (IC50) at 72 h is below 100 nM.
For the compound `O=C(NCc1cccnc1)Nc1ccc(-n2cc([C@H]3CC[C@@H](N4CC(F)(F)C4)CC3)c3ccccc32)cc1` [Compound 94, 1-[4-[3-[4-(3,3-difluoroazetidin-1-yl)cyclohexyl]indol-1-yl]phenyl]-3-(3-pyridylmethyl)urea], the IC50 at 72 h was below 100 nM.
Consider `CN1CCN(C(=O)Cc2cn(-c3ccc(NC(=O)NCc4cccnc4)cc3)c3ccccc23)CC1` [Compound 101, 1-(4-{3-[2-(4-Methylpiperazin-1-yl)-2-oxoethyl]-1H-indol-1-yl}phenyl)-3-(pyridin-3-ylmethyl)urea], for which the IC50 at 72 h was below 100 nM.
Turning to `Cc1c(-c2ccccc2)c(C(=O)N2CCC(N3CCCCC3)CC2)nn1-c1ccc(NC(=O)NCc2cccnc2)cc1` [Compound 73, 1-{4-[3-(1,4′-Bipiperidin-1′-ylcarbonyl)-5-methyl-4-phenyl-1H-pyrazol-1-yl]phenyl}-3-(pyridin-3-ylmethyl)urea], the IC50 at 72 h was below 100 nM.
As for `O=C(NCc1cccnc1)Nc1ccc(-c2nn(CCN3CCCCC3)c3ccccc23)cc1` [Compound 75, 1-[4-[1-[2-(1-piperidyl)ethyl]indazol-3-yl]phenyl]-3-(3-pyridylmethyl)urea], the IC50 at 72 h is below 100 nM.
With `O=C(NCc1cccnc1)Nc1ccc(-n2nc(CC(=O)N3CCCCC3)c3ccccc32)cc1` [Compound 84, 1-(4-{3-[2-Oxo-2-(piperidin-1-yl)ethyl]-1H-indazol-1-yl}phenyl)-3-(pyridin-3-ylmethyl)urea], the IC50 at 72 h is below 100 nM.
In the case of `O=C(NCc1cccnc1)Nc1ccc2c(c1)c(C(=O)NCCCN1CCOCC1)cn2Cc1ccccc1` [Compound 51, 1-Benzyl-N-[3-(morpholin-4-yl)propyl]-5-{[(pyridin-3-ylmethyl)carbamoyl]ami-no}-1H-indole-3-carboxamide], the IC50 at 72 h was at least 100 nM.
Same read-out and setting: the value for `O=C(NCc1cccnc1)Nc1ccc(-n2cc(CCN3CCC(F)(F)C3)c3ccccc32)cc1` [Compound 69, 1-(4-{3-[2-(3,3-Difluoropyrrolidin-1-yl)ethyl]-1H-indol-1-yl}phenyl)-3-(pyridin-3-ylmethyl) urea] was below 100 nM.
With `O=C(NCc1cccnc1)Nc1ccc2c(C(=O)N3CCC(N4CCCCC4)CC3)cn(Cc3ccccc3)c2c1` [Compound 68, 1-[1-Benzyl-3-(1,4′-bipiperidin-1′-yl-carbonyl)-1H-indol-6-yl]-3-(pyridin-3-ylmethyl)urea], the IC50 at 72 h is at least 100 nM.
Take `O=C(NCCCCC(=O)c1cn(C2CCN(CCF)CC2)c2ccccc12)NCc1cccnc1` [Compound 39]: the IC50 at 72 h is below 100 nM.
Consider `O=C(NCCCn1cc(C(=O)NCCCN2CCCC2)c2ccccc21)NCc1cccnc1` [Compound 59, 1-(3-{[(Pyridin-3-ylmethyl)carbamoyl]amino}propyl)-N-[3-(pyrrolidin-1-yl)propyl]-1H-indole-3-carboxamide], for which the IC50 at 72 h was at least 100 nM.
`O=C(NCCCCCn1cc(C(=O)N2CCC(N3CCCCC3)CC2)c2ccccc21)NCc1cccnc1` [Compound 31, 1-{5-[3-(1,4′-Bipiperidin-1′-yl-carbonyl)-1H-indol-1-yl]pentyl}-3-(pyridin-3-ylmethyl)urea]: the IC50 at 72 h is below 100 nM.
Same read-out and setting: the value for `O=C(NCc1cccnc1)Nc1ccc(-n2cc(CCN3CCOCC3)c3ccccc32)cc1` [Compound 100, 1-(4-{3-[2-(Morpholin-4-yl)ethyl]-1H-indol-1-yl}phenyl)-3-(pyridin-3-ylmethyl)urea] was below 100 nM; that for `O=C(NCc1cccnc1)Nc1ccc(-n2cc(C3CCN(C4COC4)CC3)c3ccccc32)cc1` [Compound 105, 1-(4-{3-[1-(Oxetan-3-yl)piperidin-4-yl]-1H-indol-1-yl}phenyl)-3-(pyridin-3-ylmethyl)urea] was below 100 nM; that for `O=C(/C=C/c1ccc(-n2nc(C(=O)N3CCC(N4CCCC4)CC3)c3ccccc32)cc1)NCc1cccnc1` [Compound 168, (2E)-N-(Pyridin-3-ylmethyl)-3-[4-(3-{[4-(pyrrolidin-1-yl)piperidin-1-yl]carbonyl}-1H-indazol-1-yl)phenyl]prop-2-enamide] was below 100 nM.
The same measure, in the same setting: the same measure for `CN1CCN(C2CCN(C(=O)c3cn(CCCNC(=O)NCc4cccnc4)c4ccccc34)CC2)CC1` [Compound 125, 1-[3-(3-{[4-(4-Methylpiperazin-1-yl)piperidin-1-yl]carbonyl}-1H-indol-1-yl)propyl]-3-(pyridin-3-ylmethyl)urea]: below 100 nM.
Turning to `CN(C)CC(=O)N1CCC2(CC1)CN(c1ccc(NC(=O)NCc3cccnc3)cc1)c1ccccc12` [Compound 112, 1-{4-[1′-(N,N-Dimethylglycyl)spiro[indole-3,4′-piperidin]-1(2H)-yl]phenyl}-3-(pyridin-3-ylmethyl)urea], the IC50 at 72 h was below 100 nM.
Regarding `COc1cccc(-c2cn(-c3ccc(NC(=O)NCc4cccnc4)cc3)nc2C(=O)NCCCN2CCCCC2)c1` [Compound 54, 4-(3-Methoxyphenyl)-N-[3-(piperidin-1-yl)propyl]-1-(4-{[(pyridin-3-ylmethyl)carbamoyl]ami-no}phenyl)-1H-pyrazole-3-carboxamide], the IC50 at 72 h is below 100 nM.
With `O=C(/C=C/c1ccc(-n2nc(C(=O)N3CCN(C4CCCCC4)CC3)c3ccccc32)cc1)NCc1cccnc1` [Compound 173, (2E)-3-(4-{3-[(4-Cyclohexylpiperazin-1-yl)carbonyl]-1H-indazol-1-yl}phenyl)-N-(pyridin-3-ylmethyl)prop-2-enamide], the IC50 at 72 h was below 100 nM.
On the same count and under the same terms, the value for `COC(=O)c1cn(Cc2ccccc2)c2cc(NC(=O)NCc3cccnc3)ccc12` [Compound 83, Methyl 1-benzyl-6-{[(pyridin-3-ylmethyl)carbamoyl]ami-no}-1H-indole-3-carboxylate] was at least 100 nM; that for `O=C(NCc1cccnc1)Nc1ccc(-n2cc(CCN3CC[C@@H](F)C3)c3ccccc32)cc1` [Compound 38, 1-[4-(3-{2-[(3R)-3-Fluoropyrrolidin-1-yl]ethyl}-1H-indol-1-yl)phenyl]-3-(pyridin-3-ylmethyl)urea] was below 100 nM; that for `O=C(NCCCCCn1cc(C(=O)N2CCC(N3CCC(F)(F)CC3)CC2)c2ccccc21)NCc1cccnc1` [Compound 32, 1-(5-{3-[(4,4-Difluoro-1,4′-bipiperidin-1′-yl)carbonyl]-1H-indol-1-yl}pentyl)-3-(pyridin-3-ylmethyl)urea] was below 100 nM.
